The record followed here is patent publication US10710951B2, “Pharmaceutical composition containing verbenone derivative for treating or preventing neurodegenerative disease” (KOREA UNIVERSITY RESEARCH AND BUSINESS FOUNDATION, priority 2012, dated 2020).

The structures appear in SMILES notation.

For assay [1], the system named is focal cerebral ischemia (MCAO) rats. The assay is described as follows: Focal cerebral ischemia model (MCAO). The following applies: transient ischemia rat; 50 mg/kg intraperitoneal, twice (2 hours and 7 hours after brain infarction); FIG. 4. The format is in vivo, SD rats. The protocol:
Rats were anesthetized with 3.0% isoflurane in N2O and O2 (70:30 v/v) mixture via facemask and were maintained in 2% isoflurane. Throughout the experimental period, the body temperature was controlled and kept to 37° C.±0.3° C. using a rectal thermometer and a heating pad until the animals were sufficiently recovered from anesthesia after surgery. Focal cerebral ischemia was achieved by right-sided endovascular MCAO. Briefly, a 3-0 heat-blunted monofilament nylon suture (Ethicon Johnson & Johnson, Brussels, Belgium) were inserted into the lumen of the right external carotid artery stump and advanced 17.5 mm into the internal carotid artery to occlude the ostium of the MCA. The suture was removed after 1.5 hours to allow animals to recover. Operated controls were subjected to the same surgical procedures, except for MCAO. Physiological values were measured 15 minutes before MCAO and at 15 minutes after reperfusion, and mean blood pressure was monitored for 5 minutes using a blood pressure analyzer (MicroMed, Lousville, Ky.), and glucose were monitored using an analyzer (Ciba Corning Diagnostics Corp., Medfield, Mass.). […]
Rats were anesthetized with 3.5% chloral hydrate (5 ml/kg, intraperitoneal injection) and decapitated. […] The cross-sectional area of infarction between the bregma levels of +4 mm (anterior) and −6 mm (posterior) were determined with analysis software (OPTIMAS5.1 image analysis program, BioScanInc. Edmonds, Wash.). Brain infarct size was measured manually by outlining the margins of infarct areas. The total infarction volume (mm^3) was calculated according to the following equation 5 as disclosed in a document (J Neurosci Methods (1998) 84:9-16; J Cereb Blood Flow Metab (1990) 10:290-293), and compensated for brain edema. Cerebral edema was determined by the percent increase of the ipsilateral/contralateral hemisphere area as shown in the following equation 6. […]

Assay [2] is described as follows: DPPH assay (ability to scavenge nitrogen radicals). Further details: DPPH assay % inhibition: concentration or dose not given beside the values. The protocol:
The samples were mixed with DPPH (23.6 μg/ml, in ethanol), and incubated in dark at 37° C. for 30 minutes. The DPPH absorbance reduced by each sample was measured at 517 nm. Vitamin C (Sigma-Aldrich, St. Louis, Mo.) was used as a control, and the DPPH inhibition value (%) was calculated using the following equation: Scavenging activity (%)=[Absmax(Vit.C)−Abssample]/[Absmax(Vit.C)−Absmin(Vit.C)]×100. Equation 1
The antioxidant activities of the verbenone derivatives of the present invention were measured by the following two different chemical reactions: (1) a single electron transfer-based assay that is a […] [DPPH] assay that measures a decrease in DPPH acting as a free radical generator and a termination probe; and (2) a hydrogen atom transfer assay that is an oxygen radical absorbance capacity [[…]] assay that measures the competitive reaction kinetics of a peroxyl radical generator (AAPH; 2,2′-azobis-(2-methylpropionamide)-dihydrochloride) and each sample acting as an antioxidant for oxidizable fluorescent probe (fluorescein).
A general note: DPPH is a stable violet radical that fades when it is reduced.

The next assay deals with cortical neurons. Briefly: Intracellular levels (DCF fluorescence) of reactive oxygen species after OGD/reoxygenation. The format is cell-based, SD rats. The following applies: FIG. 3. The protocol: In order to examine the direct radical scavenging activities of the samples, at 1 hour after reoxygenation, the cells were stained with the fluorescent probe H2DCF-DA (2,7-dihydroichlorofluorescein diacetate) that is widely used to measure intracellular oxidative stress. After 2 hours, the cells were washed in EBSS buffer (containing 25 mM glucose, 1.8 mM CaCal2, 1.2 mM MgSO4 and 2.5 mM probenecid (pH7.4)), and the fluorescence of DCF was measured with a fluorescence microplate reader (SpectraMax GeminiEM; Ex=485 nm, Em=530 nm) or a fluorescence microscope (DM IL HC Fluo, Leica, Wetzlar, Germany) equipped with a digital camera (DFC420C, Leica, Wetzlar Germany). The fluorescence intensity was compensated with autofluorescence (i.e., the fluorescence of cells not loaded with H2DCF-DA).

Take `COc1cc(C=CC2=CC(=O)[C@H]3C[C@@H]2C3(C)C)cc(O)c1O` [Compound 3f, (1S,5R)-4-(3,4-dihydroxy-5-methoxystyryl)-6,6-dimethylbicyclo[3.1.1]hept-3-en-2-one]: in assay [1], the cerebral edema entry was “significantly reduced”, the ischemic injury entry is “significantly reduced” and the neurological deficit result was “significantly reduced”. For the same compound, the “DPPH scavenging activity (in words)” value in assay [2] (compared to vitamin C at the same concentration) is reported as “stronger scavenging activity compared to vitamin C”. For the same compound, the “DPPH assay % inhibition” value in assay [2] (relative to vitamin C (Equation 1)) is given as 83.64 ± 6.19%. Also, the “OGD-induced intracellular oxidative stress (DCF fluorescence)” value in the assay on cortical neurons was “reduced OGD-induced intracellular oxidative stress”.
